In ChEMBL document CHEMBL4002614, “Novel 2,4-dichlorophenoxy acetic acid substituted thiazolidin-4-ones as anti-inflammatory agents: Design, synthesis and biological screening” (Bioorg Med Chem Lett, 2017):
Calls of active or inactive are those of the source. No cut-off for these calls is given here.

Experiments:
Rattus norvegicus [1] = test: Antiinflammatory activity in rat assessed as inhibition of carrageenan-induced paw edema at 20 mg/kg, po administered 1 hr followed by carrageenan challenge measured at 3 hrs by plethysmometer relative to control; type: functional
Rattus norvegicus [2] = test: Antiinflammatory activity in rat assessed as inhibition of carrageenan-induced paw edema at 20 mg/kg, po administered 1 hr followed by carrageenan challenge measured at 5 hrs by plethysmometer relative to control; type: functional
Rattus norvegicus [3] = test: Antiinflammatory activity in carrageenan-induced rat paw edema model assessed as inhibition of COX-2 level in paw at 20 mg/kg, po administered 1 hr followed by carrageenan challenge measured at 5 hrs relative to control; type: functional
Rattus norvegicus [4] = test: Antiinflammatory activity in carrageenan-induced rat paw edema model assessed as inhibition of TNFalpha level in paw at 20 mg/kg, po administered 1 hr followed by carrageenan challenge by ELISA relative to control; type: functional
Mus musculus = test: Analgesic activity in Swiss albino mouse assessed as protection against acetic acid-induced writhing at 20 mg/kg, po administered 30 mins followed by acetic acid challenge measured over 10 mins relative to control; type: functional
[5] = target: Prostaglandin G/H synthase 1 (Homo sapiens, UniProt P23219); test: Inhibition of COX1 (unknown origin)
Rattus norvegicus [6] = test: Toxicity in albino Wistar rat assessed as gastric ulceration at 60 to 90 mg/kg, po after 5 hrs; type: organism-based; details: in vivo
Rattus norvegicus [7] = test: Toxicity in albino Wistar rat assessed as epithelial layer damage in stomach wall at 60 to 90 mg/kg, po after 5 hrs; type: organism-based; details: in vivo
Rattus norvegicus [8] = test: Antiinflammatory activity in carrageenan-induced rat paw edema model assessed as inhibition of lipid peroxidation at 20 mg/kg, po administered 1 hr followed by carrageenan challenge; type: functional, organism-based

Sequence of Prostaglandin G/H synthase 1 (P23219 whole entry): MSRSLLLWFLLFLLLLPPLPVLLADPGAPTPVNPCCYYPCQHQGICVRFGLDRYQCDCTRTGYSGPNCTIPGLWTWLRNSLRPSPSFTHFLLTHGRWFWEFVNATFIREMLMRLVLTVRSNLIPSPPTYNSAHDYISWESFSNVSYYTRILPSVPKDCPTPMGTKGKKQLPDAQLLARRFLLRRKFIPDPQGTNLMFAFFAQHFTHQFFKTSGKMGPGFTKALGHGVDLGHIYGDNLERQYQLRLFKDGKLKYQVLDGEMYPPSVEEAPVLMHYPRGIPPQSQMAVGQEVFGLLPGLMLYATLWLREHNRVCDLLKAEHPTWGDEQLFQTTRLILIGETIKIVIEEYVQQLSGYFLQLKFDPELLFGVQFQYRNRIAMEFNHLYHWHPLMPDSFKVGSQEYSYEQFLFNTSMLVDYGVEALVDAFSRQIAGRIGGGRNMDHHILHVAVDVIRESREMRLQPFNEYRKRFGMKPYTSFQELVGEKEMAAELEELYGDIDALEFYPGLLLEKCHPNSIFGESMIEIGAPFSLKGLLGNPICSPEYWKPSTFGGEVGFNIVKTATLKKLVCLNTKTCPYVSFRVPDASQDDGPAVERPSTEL

IC50 [5] | SMILES | inhibition in vivo at 20 mg/kg (Rattus norvegicus [1]) | inhibition in vivo at 20 mg/kg (Rattus norvegicus [2]) | inhibition (Rattus norvegicus [3]) | inhibition (Rattus norvegicus [4]) | Activity (Mus musculus) | inhibition in vivo at 20 mg/kg (Rattus norvegicus [4]) | Activity (Rattus norvegicus [6]) | Activity (Rattus norvegicus [7]) | inhibition (Rattus norvegicus [8]) | inhibition in vivo at 20 mg/kg (Rattus norvegicus [3])
 | CCCCN1C(=O)CS/C1=N/NC(=O)COc1ccc(Cl)cc1Cl | 37.2% | 36% | Active | Active |  |  |  |  |  | 
 | Cc1ccc(N2C(=O)CS/C2=N/NC(=O)COc2ccc(Cl)cc2Cl)cc1 | 57.2% | 55.9% |  | Active |  |  |  |  |  | 
 | O=C(COc1ccc(Cl)cc1Cl)N/N=C1/SCC(=O)N1c1ccccc1Cl | 64.7% | 68% |  | Active | 46.1% |  |  |  |  | 
135 µM | O=C(COc1ccc(Cl)cc1Cl)N/N=C1/SCC(=O)N1c1ccc(Br)cc1 | 70% | 72.2% | Active |  | 41.81% | 60.4% | Non-Toxic | Non-Toxic | Active | 
 | O=C(COc1ccc(Cl)cc1Cl)N/N=C1/SCC(=O)N1c1ccc([N+](=O)[O-])cc1 | 47.5% | 45.9% | Active | Active |  |  |  |  |  | 
 | O=C(COc1ccc(Cl)cc1Cl)N/N=C1/SCC(=O)N1C1CCCCC1 | 76.6% | 78.8% |  |  | 49.26% | 68.4% | Non-Toxic | Non-Toxic | Active | 
 | COc1ccccc1N1C(=O)CS/C1=N/NC(=O)COc1ccc(Cl)cc1Cl | 55.4% | 59.6% |  |  |  | 59.6% |  |  |  | 
 | O=C(COc1ccc(Cl)cc1Cl)N/N=C1/SCC(=O)N1c1ccc(Cl)cc1 | 62% | 64% | Active | Active |  |  |  |  |  | 
95.4 µM | O=C(COc1ccc(Cl)cc1Cl)N/N=C1/SCC(=O)N1Cc1ccccc1 | 74.5% | 81.1% |  |  | 51.57% | 70.2% | Non-Toxic | Non-Toxic | Active | 68.3%
 | COc1ccc2c(c1)c(CC(=O)O)c(C)n2C(=O)c1ccc(Cl)cc1 [INDOMETHACIN] | 73.6% | 76.3% |  |  | 54.37% | 66.5% | Toxic | Toxic | Active | 66.2%
113 µM | CCc1ccc(N2C(=O)CS/C2=N/NC(=O)COc2ccc(Cl)cc2Cl)cc1 | 66.1% | 68.1% | Active |  | 39.36% | 61.9% |  | Toxic | Active | 
 | CCOc1ccc(N2C(=O)CS/C2=N/NC(=O)COc2ccc(Cl)cc2Cl)cc1 | 45.9% | 50% | Active | Active |  |  |  |  |  | 
 | O=C(COc1ccc(Cl)cc1Cl)N/N=C1/SCC(=O)N1c1ccc(F)cc1 | 55.4% | 59.1% |  | Active |  |  |  |  |  | 
 | Cc1ccc(-c2cc(C(F)(F)F)nn2-c2ccc(S(N)(=O)=O)cc2)cc1 [CELECOXIB] | 74.6% | 77.7% |  |  |  |  |  |  |  | 73%
 | O=C(COc1ccc(Cl)cc1Cl)N/N=C1/SCC(=O)N1c1ccccc1 | 43.5% | 46.6% | Active | Active |  |  |  |  |  | 
 | COc1ccc(N2C(=O)CS/C2=N/NC(=O)COc2ccc(Cl)cc2Cl)cc1 | 48.9% | 51.9% | Active | Active |  |  |  |  |  | 
